According to PMC11278161 (Marine Drugs, 2024):

Tested on: A549 cells
Assay: cells
Settings: Homo sapiens, A549, 72 h, read-out: IC50, cytotoxicity for A549

## CC[C@@]1(O)C(=O)OCc2c1cc1n(c2=O)Cc2cc3ccccc3nc2-1 [CPT, Camptothecin]
  IC50: 260 nM
